Test results reported in ChEMBL document CHEMBL4842384 (J Med Chem, 2021).
≈ marks a conversion by molar mass, not a printed value.

How the values were obtained:
[1] = Aqueous solubility of compound at pH 1; type: physicochemical; settings: buffer
[2] = Aqueous solubility of compound at pH 6.5; type: physicochemical; settings: buffer
[3] = Aqueous solubility of compound at pH 7.4; type: physicochemical; settings: buffer
[4] = Permeability of compound at pH 5.5 by PAMPA assay; type: ADME; settings: for Papp: read-out: permeability
[5] = Permeability of compound at pH 7.4 by PAMPA assay; type: ADME; settings: for Papp: read-out: permeability
[6] = Cmax in C57BL6 mouse at 30 mg/kg, po; type: ADME, organism-based; parameters: route oral, dose 30 mg/kg; settings: in vivo
[7] = AUC in C57BL6 mouse at 30 mg/kg, po; type: ADME, organism-based; parameters: dose 30 mg/kg; settings: in vivo
[8] = Oral bioavailability in C57BL6 mouse at 30 mg/kg; type: ADME, organism-based; settings: in vivo

| solubility [1] [µg/mL] | solubility [2] [µg/mL] | solubility [3] [µg/mL] | Papp [4] [×10⁻⁶ cm/s] | Papp [5] [×10⁻⁶ cm/s] | Cmax [6] [µM] | AUC [7] [µM·h] | bioavailability [8] [%] | permeability [4] | permeability [5] | SMILES |
| --- | --- | --- | --- | --- | --- | --- | --- | --- | --- | --- |
| 11 (≈ 20.9 µM) | 1180 (≈ 2240 µM) | > 2450 | 47.9 | 17.9 | 11 | 93 | 50 | – | – | Cc1ccc(C2=C(c3nnn[nH]3)C(=O)N[C@@](c3ccc(OCCCC(F)(F)F)cc3)(C(F)(F)F)C2)cc1 [BMS-963272] |
| 1 (≈ 1.81 µM) | 332 (≈ 600 µM) | 1130 (≈ 2050 µM) | 46.6 | 34.1 | 4.3 | 22 | 88 | – | – | Cc1ccc(C2=C(c3nnn[nH]3)C(=O)N[C@@](c3ccc(OCCCCCC(F)(F)F)cc3)(C(F)(F)F)C2)cc1 |
| < 1 | < 1 | – | – | – | 0.16 | 1.1 | 15 | Nd(Insoluble) | Nd(Insoluble) | COc1ccc(NC(=O)C2=C(c3ccc(C)cc3)C[C@](c3ccc(OCCCC(F)(F)F)cc3)(C(F)(F)F)NC2=O)cc1 |
